C[N+](C)(C)C[C@H](O)CC(=O)[O-]
solubility (mole fraction) (in acetone, 278.15 K): 7.1e-05 | solubility (mole fraction) (in acetone, 283.15 K): 8.1e-05 | solubility (mole fraction) (in acetone, 288.15 K): 9.1e-05 | solubility (mole fraction) (in acetone, 293.15 K): 0.000106 | solubility (mole fraction) (in acetone, 298.15 K): 0.000117 | solubility (mole fraction) (in acetone, 303.15 K): 0.000131 | solubility (mole fraction) (in acetone, 308.15 K): 0.000143 | solubility (mole fraction) (in acetone, 313.15 K): 0.000157 | solubility (mole fraction) (in acetone, 318.15 K): 0.000175 | solubility (mole fraction) (in acetone, 323.15 K): 0.000195 | solubility (mole fraction) (in acetone, 328.15 K): 0.00022 | solubility (mole fraction) (in ethanol, 278.15 K): 0.0392 | solubility (mole fraction) (in ethanol, 283.15 K): 0.0408 | solubility (mole fraction) (in ethanol, 288.15 K): 0.0431 | solubility (mole fraction) (in ethanol, 293.15 K): 0.0452 | solubility (mole fraction) (in ethanol, 298.15 K): 0.0483 | solubility (mole fraction) (in ethanol, 303.15 K): 0.0517 | solubility (mole fraction) (in ethanol, 308.15 K): 0.0546 | solubility (mole fraction) (in ethanol, 313.15 K): 0.0576 | solubility (mole fraction) (in ethanol, 318.15 K): 0.0607 | solubility (mole fraction) (in ethanol, 323.15 K): 0.0648 | solubility (mole fraction) (in ethanol, 328.15 K): 0.0698 | solubility (mole fraction) (in ethanol, 333.15 K): 0.0747 | solubility (mole fraction) (in ethanol, 338.15 K): 0.0801 | solubility (mole fraction) (in ethanol, 343.15 K): 0.0855 | solubility (mole fraction) (in ethanol, 348.15 K): 0.0919 | solubility (mole fraction) (in isopropanol, 278.15 K): 0.00146 | solubility (mole fraction) (in isopropanol, 283.15 K): 0.00181 | solubility (mole fraction) (in isopropanol, 288.15 K): 0.00223 | solubility (mole fraction) (in isopropanol, 293.15 K): 0.00271 | solubility (mole fraction) (in isopropanol, 298.15 K): 0.0034 | solubility (mole fraction) (in isopropanol, 303.15 K): 0.00417 | solubility (mole fraction) (in isopropanol, 308.15 K): 0.00527 | solubility (mole fraction) (in isopropanol, 313.15 K): 0.0063 | solubility (mole fraction) (in isopropanol, 318.15 K): 0.00778 | solubility (mole fraction) (in isopropanol, 323.15 K): 0.00983 | solubility (mole fraction) (in isopropanol, 328.15 K): 0.0118 | solubility (mole fraction) (in isopropanol, 333.15 K): 0.0144 | solubility (mole fraction) (in methanol, 278.15 K): 0.0962 | solubility (mole fraction) (in methanol, 283.15 K): 0.0982 | solubility (mole fraction) (in methanol, 288.15 K): 0.104 | solubility (mole fraction) (in methanol, 293.15 K): 0.111 | solubility (mole fraction) (in methanol, 298.15 K): 0.119 | solubility (mole fraction) (in methanol, 303.15 K): 0.127 | solubility (mole fraction) (in methanol, 308.15 K): 0.136 | solubility (mole fraction) (in methanol, 313.15 K): 0.144 | solubility (mole fraction) (in methanol, 318.15 K): 0.154 | solubility (mole fraction) (in methanol, 323.15 K): 0.165 | solubility (mole fraction) (in methanol, 328.15 K): 0.178 | solubility (mole fraction) (in methanol, 333.15 K): 0.189

Reference: BigSolDB 2.1
